Experiment in all cases: NCI anticancer screen, dose series, 48 h
In assay [1] the test system is A549 NSCLC.
The subject of assay [2] is DU-145 prostate.
The subject of assay [3] is HCT-15 colon.
Assay [4] has as its system HOP-92 NSCLC.
The subject of assay [5] is IGROV1 ovarian.
Assay [6] concerns M14 melanoma.
Assay [7] has as its system MALME-3M melanoma.
The subject of assay [8] is MDA-MB-435.
In assay [9] the test system is NCI-H460 lung.
Assay [10] has as its system OVCAR-5 ovarian.
In assay [11] the test system is RXF 393 renal.
In assay [12] the test system is SF-295 CNS.
For assay [13], the system named is SK-MEL-28 melanoma.
Assay [14] has as its system SNB-75 CNS.
The subject of assay [15] is SW-620 colon.
Assay [16] has as its system U251 CNS.
Assay [17] concerns UACC-257 melanoma.
The test system of assay [18] is COLO 205 colon.
Assay [19] has as its system EKVX NSCLC.

Values joined by “and” are separate entries in the source; they are usually repeats but may differ in a detail not shown here. Equal entries are not always repeated.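 Following 48 hours of exposure in 96-well plates, responses at five concentrations were used to interpolate endpoints linearly. At the GI50, growth is halved. TGI denotes the concentration required for complete inhibition of growth.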

In the case of `CCOC(=O)c1c(-c2ccc(OC)cc2)c(C#N)c(=S)n(C2OC(COC(C)=O)C(OC(C)=O)C(OC(C)=O)C2OC(C)=O)c1-c1ccccc1` (stereo unspecified), the TGI in [1], in assay [2], in [3], in assay [4], in [5] and in assay [6] was more than 100 µM each time. Further, the TGI in assay [7], in assay [8], in [9], in [10], in assay [11] and in assay [12] was more than 100 µM each time. Besides, the TGI in assay [13], in assay [14], in assay [15], in [16] and in assay [17] was more than 100 µM throughout.
As for `CCCCN(CCCC)CC(O)c1cc(-c2ccc(C(F)(F)F)cc2)nc(-c2ccc(C(F)(F)F)cc2)c1` (stereo unspecified), the TGI in assay [18], in [2], in assay [19], in [3], in [4] and in assay [5] was more than 100 µM in each case. The TGI in assay [6], in assay [7], in assay [8], in assay [9], in assay [10] and in assay [12] was more than 100 µM in each case. In addition, the TGI in [13], in assay [14], in assay [15], in assay [16] and in [17] was more than 100 µM in each case.
Turning to `OCC1OC(c2cccc3cc(O)c(O)cc23)CC1O` (stereo unspecified), the TGI in assay [1], in assay [2], in assay [19], in [3], in [4] and in [5] was more than 100 µM in each case. Also, the TGI in [6], in [8], in [9], in [10], in assay [12] and in [13] was more than 100 µM each time. The TGI in assay [14], in [15], in assay [16] and in assay [17] was more than 100 µM each time.
Regarding `CCCC(=O)n1[nH]c(=O)n(-c2ccc(Cl)cc2)c1=O`, the TGI in [1], in [18], in assay [2], in assay [19], in assay [3] and in assay [5] was more than 100 µM throughout. Further, the TGI in assay [6], in [7], in assay [8], in assay [9], in [10] and in assay [11] was more than 100 µM throughout. Also, the TGI in assay [12], in assay [13], in assay [14], in assay [15], in assay [16] and in [17] was more than 100 µM each time.
Consider `CCCCCCCCCC1(N=[N+]=[N-])C(=O)c2ccccc2N(C)C1=O` (stereo unspecified), for which the TGI in [1] is 95.1 µM; in assay [18], more than 100 µM; in assay [2], more than 100 µM; in assay [3], more than 100 µM; in assay [4] it was 53.3 µM; in [5], 60.7 µM. Moreover, the TGI in assay [6] was 64.6 µM; in [7], 70.2 µM; in assay [8], 6.88 µM; in assay [9], more than 100 µM; in assay [10], 82.9 µM; in assay [11], 55.3 µM. Besides, the TGI is more than 100 µM in [12]; 78.8 µM in assay [13]; more than 100 µM in [14]; more than 100 µM in assay [15]; 6.31 µM in assay [16]; more than 100 µM in [17].
On to `CN(CC(=O)O)c1ncc2c(n1)-c1ccccc1SC2`, for which the TGI in [1], in assay [18], in [2], in assay [19], in assay [3] and in assay [4] was more than 100 µM throughout. Besides, the TGI in [5], in assay [6], in assay [7], in [8], in assay [9] and in assay [10] was more than 100 µM in each case. The TGI in assay [12], in assay [13], in assay [14], in [15], in [16] and in assay [17] was more than 100 µM each time.
Take `COCC1OC(Sc2ccccc2)C(O)C(OC)C1OC` (stereo unspecified): the TGI in assay [1], in [18], in [2], in assay [19], in assay [3] and in [5] was more than 100 µM in each case. The TGI in assay [6], in [7], in assay [8], in assay [9], in [10] and in [11] was more than 100 µM throughout. Also, the TGI in assay [12], in assay [13], in [14], in assay [15], in [16] and in assay [17] was more than 100 µM each time. In assay [14], the GI50 is > 100 µM and 10.1 µM.
Regarding `Cc1c([N+](=O)[O-])ccc2c(NCCCN(C)C)ccnc12`, the TGI in assay [1] was 40.5 µM; in assay [18] it was 24.7 µM; in [2], more than 100 µM; in assay [3] it was 32.7 µM; in assay [4], 61.5 µM; in assay [5], 52.7 µM. In addition, the TGI in [6] amounted to 29.9 µM; in assay [7] it was 31.7 µM; in [8] it was 34.9 µM; in [9], 33.2 µM; in [10], 92.5 µM; in [11], 60.8 µM. For the same compound, the TGI in [12] is 60.4 µM; in assay [13] it was 54.5 µM; in [14], more than 100 µM; in assay [15], 55.6 µM; in assay [16] it was more than 100 µM; in [17], 31.4 µM.
On to `COc1cc(/C=C2\C[C@H]3[C@@H]4CCc5cc(O)ccc5[C@H]4CC[C@]3(C)C2=O)cc(OC)c1OC`, for which the TGI in [1] was 31.8 µM; in assay [18], 61.5 µM; in [2], 17.5 µM; in [19], 23.7 µM; in assay [3] it was more than 100 µM; in assay [5] it was 32.8 µM. The TGI in [6] was 37.7 µM; in [7] it was 13.4 µM; in assay [8], 48.6 µM; in [9], more than 100 µM; in assay [10] it was 38.6 µM; in [11] it was 24.1 µM. The TGI in [12] came out at 27.4 µM; in assay [13], 24.8 µM; in assay [14], 26.4 µM; in assay [15] it was 34.1 µM; in [16], 38.1 µM; in assay [17], 34.1 µM.
For `Nc1ccc2c(c1)N(C(=O)c1cc3cc(NC(=O)c4cc5ccccc5o4)ccc3[nH]1)CC2CCl` (stereo unspecified), the TGI in assay [1] is more than 34.1 µM; in assay [18], 1.6 µM; in [2], 2.08 µM; in assay [3], more than 100 µM; in assay [4], 1.47 µM; in assay [5], more than 100 µM. The TGI was 0.289 µM in assay [7]; 0.512 µM in [8]; more than 32.8 µM in assay [9]; more than 38.3 µM in assay [10]; 0.0496 µM in [11]; 0.502 µM in [13]. Moreover, the TGI in assay [14] turned out to be 0.469 µM; in [15] it was 12.6 µM; in assay [16], 12 µM.
On to `Oc1c(C2=NNC(c3ccc(Cl)cc3Cl)C2)ccc2ccccc12` (stereo unspecified), for which the TGI in assay [1], in [18], in [2], in assay [3], in assay [4] and in assay [5] was more than 100 µM in each case. Besides, the TGI in [6], in assay [7], in [8], in [9], in assay [10] and in assay [11] was more than 100 µM in each case. Moreover, the TGI in assay [12], in assay [13], in assay [14], in [15], in [16] and in [17] was more than 100 µM in each case.
With `COC(=O)CCC1=CCC2(SC)C(=O)Nc3cccc1c32` (stereo unspecified), the TGI in [1], in [18], in assay [2], in assay [19], in assay [3] and in assay [4] was more than 100 µM each time. Also, the TGI in assay [5], in assay [6], in assay [7], in [8], in assay [9] and in [10] was more than 100 µM throughout. In addition, the TGI in [12], in assay [13], in assay [14], in assay [15], in assay [16] and in [17] was more than 100 µM in each case.
Take `COc1cc(C2SCC(=O)N2c2ccccn2)cc(OC)c1OC` (stereo unspecified): the TGI in assay [1] was more than 100 µM; in [18] it was more than 100 µM; in assay [2] it was more than 100 µM; in assay [19], more than 100 µM; in [3], more than 100 µM; in assay [4], 89.2 µM. Further, the TGI is more than 100 µM in assay [5]; more than 100 µM in assay [6]; 77.6 µM in [8]; more than 100 µM in [9]; more than 100 µM in assay [10]; more than 100 µM in assay [12]. The TGI in assay [13], in assay [15], in assay [16] and in [17] was more than 100 µM in each case.
As for `CNc1ccc(C(=O)CC(O)CCC(C)C2OC(=O)CC(O)CC(=O)CC(O)CC(O)CC(O)CC(O)CC3(O)CC(O)C(C(=O)NCCN(C)C)C(CC(OC4OC(C)C(O)C(NC(=O)CN5CCN(C)CC5)C4O)/C=C/C=C/C=C/C=C\C=C/C=C/C=C/C2C)O3)cc1` (stereo unspecified), the TGI in assay [1], in assay [18], in assay [2], in assay [3], in [4] and in assay [5] was more than 100 µM throughout. For the same compound, the TGI was more than 100 µM in [6]; 8.91 µM in assay [7]; more than 100 µM in assay [8]; more than 100 µM in [9]; more than 100 µM in assay [10]; more than 100 µM in assay [11]. The TGI was more than 100 µM in assay [12]; 45.7 µM in [13]; more than 100 µM in [14]; more than 100 µM in assay [15]; more than 100 µM in assay [16]; 71 µM in assay [17].
Regarding `COC(=O)c1ccc(C(=O)NC(Cc2ccc(Oc3cc(CC(NC(=O)c4ccccc4C(=O)OC)C(=O)OC)ccc3OC)cc2)C(=O)OC)cc1` (stereo unspecified), the TGI in assay [1], in [18], in assay [2], in assay [19], in assay [3] and in assay [4] was more than 100 µM in each case. In addition, the TGI in [5], in assay [6], in assay [7], in [8], in assay [9] and in assay [10] was more than 100 µM each time. Besides, the TGI in assay [12], in assay [13], in assay [14], in assay [15] and in [17] was more than 100 µM in each case.

For the origin of these results see PubChem BioAssay (NCI).
